Assay results: patent US4610982A, “Anti-inflammatory benzo- and thieno-1,2-thiazine-3-carboxamide 1,1-dioxide derivatives, compositions, and method of use therefor” (Pfizer Inc., priority 1985, dated 1986)

What was measured:
lipoxygenase = lipoxygenase inhibition; type: biochemical
[1] = system: carrageenin-induced rat foot edema; test: carrageenin-induced rat foot edema test; type: in vivo; conditions: 32 mg./kg. dose level, oral route; rat hind paw edema three hours after carrageenin injection
From the text: (§1) The novel 2-acetoxybenzoyl and ring-substituted α-arylpropionyl oxicam esters of the present invention are all readily adapted to therapeutic use as anti-arthritic agents. […] A. Winter et al., Proc. Soc. Exp. Biol. Med., Vol. 111, p. […] Additionally, hydrolysis of this novel product in vivo simultaneously produces two different anti-inflammatory compounds of known value (viz., piroxicam and ketoprofen). The other oxicam ester compounds of this invention also afford similar results.
In this test, anti-inflammatory activity is determined as the percent inhibition of edema formation in the hind paw of male albino rats (weighing 150-190g.) in response to a sub-plantar injection of carrageenin. The carrageenin is injected as a 1% aqueous suspension (0.015 ml.) one hour after oral administration of the drug, which is normally given in the form of an aqueous solution. Edema formation is then assessed by measuring the volume of the injected paw initially as well as three hours after the carrageenin injection. The increase in volume three hours after carrageenin injection constitutes the individual response. […]

cyclooxygenase = cyclooxygenase (Homo sapiens, UniProt P23219); test: cyclooxygenase inhibition; type: biochemical
From the text: as §1

Sequence of cyclooxygenase (P23219 24-599): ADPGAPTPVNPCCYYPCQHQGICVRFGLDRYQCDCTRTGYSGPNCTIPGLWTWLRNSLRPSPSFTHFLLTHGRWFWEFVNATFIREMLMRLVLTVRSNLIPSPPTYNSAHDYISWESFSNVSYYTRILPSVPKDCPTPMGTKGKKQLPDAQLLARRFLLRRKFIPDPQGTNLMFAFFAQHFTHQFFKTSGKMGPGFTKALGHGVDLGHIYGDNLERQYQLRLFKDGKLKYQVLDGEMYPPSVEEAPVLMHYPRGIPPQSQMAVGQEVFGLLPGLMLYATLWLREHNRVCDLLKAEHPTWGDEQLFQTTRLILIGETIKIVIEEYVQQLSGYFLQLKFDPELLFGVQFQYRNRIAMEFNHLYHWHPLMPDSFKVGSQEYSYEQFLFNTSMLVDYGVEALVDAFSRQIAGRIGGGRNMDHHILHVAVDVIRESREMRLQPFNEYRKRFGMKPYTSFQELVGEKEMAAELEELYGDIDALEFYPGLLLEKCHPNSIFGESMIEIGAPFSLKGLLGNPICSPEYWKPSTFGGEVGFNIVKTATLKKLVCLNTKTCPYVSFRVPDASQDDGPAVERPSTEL

- IC50 (lipoxygenase): 0.02 µM
- IC50 (cyclooxygenase): 10 µM
Structure (SMILES): CC(C(=O)OC1=C(C(=O)Nc2ccccn2)N(C)S(=O)(=O)c2ccccc21)c1cccc(C(=O)c2ccccc2)c1 (stereo not drawn) [Example 3, 4-[α-(3-benzoylphenyl)propionyloxy]-2-methyl-N-(2-pyridinyl)-2H-1,2-benzothiazine-3-carboxamide 1,1-dioxide]
- inhibition in swelling [1]: 64%
